Laboratory results from paper doi:10.1101/2025.08.21.671593v1, “Suppression and modulation mechanism underlying the flavonoid-induced inhibition of fibrillation of α-synuclein” (biorxiv, 2025).

Target: T1, α-synuclein (α-Syn, αSyn), monomeric (Homo sapiens, UniProt P37840)
T1 construct: gene SNCA; purified, unfolded monomer
Assay: intrinsic tyrosine fluorescence quenching, modified Stern-Volmer plot
Conditions: 37 °C; protein 0.3 mg/mL, Cyanidin 2-30 μM; about 1:1; double-log; printed '8.4×10[5]'; paper calls it weak binding (mM range), which conflicts with this value

`Oc1cc(O)c2cc(O)c(-c3ccc(O)c(O)c3)[o+]c2c1` [Cyanidin] gave a Ka of 840000 M⁻¹.
